In ChEMBL document CHEMBL1134993, “Synthesis of [difluoro-(3-alkenylphenyl)-methyl]-phosphonic acids on non-crosslinked polystyrene and their evaluation as inhibitors of PTP1B” (Bioorg Med Chem Lett, 2002):
Active and inactive are the calls of the source. The calls are words filed in the database; no cut-off is given here.

The molecules below were run against T1, Tyrosine-protein phosphatase non-receptor type 1 (Homo sapiens, UniProt P18031) (assay: Inhibitory concentration against Protein-tyrosine phosphatase 1B (PTP1B)).
T1 sequence (P18031 whole entry): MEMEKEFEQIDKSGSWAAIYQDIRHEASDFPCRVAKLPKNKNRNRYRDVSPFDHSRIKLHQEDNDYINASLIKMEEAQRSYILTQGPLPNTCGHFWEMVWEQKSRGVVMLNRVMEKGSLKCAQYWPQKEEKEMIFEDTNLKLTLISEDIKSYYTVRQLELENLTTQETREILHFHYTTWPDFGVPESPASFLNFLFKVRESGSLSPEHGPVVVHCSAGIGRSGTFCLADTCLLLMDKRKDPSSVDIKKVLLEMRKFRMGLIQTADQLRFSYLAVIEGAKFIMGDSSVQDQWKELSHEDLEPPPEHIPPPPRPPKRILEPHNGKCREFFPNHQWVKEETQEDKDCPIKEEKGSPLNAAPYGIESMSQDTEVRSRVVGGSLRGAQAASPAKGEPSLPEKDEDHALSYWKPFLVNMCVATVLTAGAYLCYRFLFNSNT

Row | Structure (SMILES) | IC50
1 | C=CCOC(=O)/C=C\c1cccc(C(F)(F)P(=O)(O)O)c1 | 12.2 mM

Each molecule was assayed against T1, Tyrosine-protein phosphatase non-receptor type 1 (assay: Binding affinity towards protein-tyrosine phosphatase 1B (PTP1B)).

Row | Structure (SMILES) | Ki
2 | C=CCOC(=O)/C=C\c1cccc(C(F)(F)P(=O)(O)O)c1 | 8 mM

Each molecule was assayed against T1, Tyrosine-protein phosphatase non-receptor type 1 (assay: Inhibitory concentration against protein-tyrosine phosphatase 1B (PTB 1B)).

Row | Structure (SMILES) | IC50
3 | O=P(O)(O)C(F)(F)c1cccc(-c2ccccc2)c1 | 0.015 mM

Each molecule was assayed against T2, Tyrosine-protein phosphatase non-receptor type 1 (Homo sapiens) (UniProt P18031) (assay: Compound was evaluated for its percent Inhibition of protein-tyrosine phosphatase 1B (PTP1B) at the concentration of 50 uM).
T2 sequence (whole entry): T1 sequence (P18031 whole entry)

Row | Structure (SMILES) | inhibition
4 | O=P(O)(O)C(F)(F)c1cccc(/C=C\C=C\c2ccccc2)c1 | 70%
5 | O=P(O)(O)C(F)(F)c1cccc(/C=C\c2cccc3ccccc23)c1 | 60%

Further lines, results first:

Row | inhibition | Structure (SMILES)
6 | 71% | O=C(/C=C\c1cccc(C(F)(F)P(=O)(O)O)c1)OCc1ccccc1
7 | 53% | CCOC(=O)/C=C\c1cccc(C(F)(F)P(=O)(O)O)c1
8 | 84% | C=CCOC(=O)/C=C\c1cccc(C(F)(F)P(=O)(O)O)c1
9 | 45% | N#C/C=C\c1cccc(C(F)(F)P(=O)(O)O)c1
10 | 23% | COC(=O)/C=C\c1cccc(C(F)(F)P(=O)(O)O)c1

Each molecule was assayed against T2, Tyrosine-protein phosphatase non-receptor type 1 (Homo sapiens) (assay: Compound was evaluated for its percent Inhibition of protein-tyrosine phosphatase 1B (PTP1B) at the concentration of 50 uM; […]).

Row | Structure (SMILES) | inhibition
11 | O=P(O)(O)C(F)(F)c1cccc(/C=C\CCc2ccccc2)c1 | inactive
12 | CN(C)C/C=C\c1cccc(C(F)(F)P(=O)(O)O)c1 | inactive

The remaining lines, values ahead:

Row | inhibition | Structure (SMILES)
13 | inactive | CC(C)=C/C=C\c1cccc(C(F)(F)P(=O)(O)O)c1
14 | inactive | O=P(O)(O)C(F)(F)c1cccc(/C=C\Cl)c1
15 | inactive | CC/C=C\c1cccc(C(F)(F)P(=O)(O)O)c1

Each molecule was assayed against T2, Tyrosine-protein phosphatase non-receptor type 1 (Homo sapiens) (assay: Compound was evaluated for its percent Inhibition of protein-tyrosine phosphatase 1B (PTP1B) at the concentration of 50 uM; Showed little or no inhibition).

Row | Structure (SMILES) | inhibition
16 | O=P(O)(O)C(F)(F)c1cccc(/C=C\c2ccc(Cl)cc2)c1 | inactive
17 | O=P(O)(O)C(F)(F)c1cccc(/C=C\c2ccccc2)c1 | inactive
18 | Cc1ccc(/C=C\c2cccc(C(F)(F)P(=O)(O)O)c2)cc1 | inactive
19 | Cc1ccccc1/C=C\c1cccc(C(F)(F)P(=O)(O)O)c1 | inactive
20 | CCOc1ccc(/C=C\c2cccc(C(F)(F)P(=O)(O)O)c2)cc1 | inactive
21 | O=[N+]([O-])c1ccc(/C=C\c2cccc(C(F)(F)P(=O)(O)O)c2)cc1 | inactive
22 | O=P(O)(O)C(F)(F)c1cccc(/C=C\c2ccc(Br)cc2)c1 | inactive
23 | O=P(O)(O)C(F)(F)c1cccc(/C=C\c2ccc(F)cc2)c1 | inactive
